Test: Reactivity of polyols with active compounds of formula I
Type: physicochemical

- Reactivity with the active compounds of formula I (undesired reaction products): practically no reactivity
SMILES: OC[C@H]1O[C@@H](O[C@H]2[C@H](O)[C@@H](O)C(O)O[C@@H]2CO)[C@H](O)[C@@H](O)[C@H]1O (stereo partly shown) [Lactose]

Reference: patent US8946229B2, “Formulations” (UCB, Inc., priority 2002, dated 2015)
